Data set [1] deals with T1, Clostridium autoethanogenum BDH (2,3-butanediol dehydrogenase) variant BDH:S199A, SEQ ID NO: 16 (Clostridium autoethanogenum, UniProt A0ABM5NRF0, S199A).
T1 sequence (A0ABM5NRF0 1-351 S199A): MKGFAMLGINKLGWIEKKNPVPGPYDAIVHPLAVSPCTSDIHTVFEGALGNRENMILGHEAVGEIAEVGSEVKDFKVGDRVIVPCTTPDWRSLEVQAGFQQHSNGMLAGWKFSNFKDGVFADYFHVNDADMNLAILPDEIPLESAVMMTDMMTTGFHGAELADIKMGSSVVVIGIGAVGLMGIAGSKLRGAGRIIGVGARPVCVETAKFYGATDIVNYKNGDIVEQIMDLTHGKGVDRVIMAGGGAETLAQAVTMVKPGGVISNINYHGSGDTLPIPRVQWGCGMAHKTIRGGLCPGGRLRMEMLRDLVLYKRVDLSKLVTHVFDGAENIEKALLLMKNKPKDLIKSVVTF
As to the kind of experiment: kinetic parameters of BDH:S199A. The note with it: for kcat / kcat/Km: pH 7.5, room temperature. The data set is classed as biochemical. The protocol: (§1) The kinetic parameters of EtDH and EtDH:D46G were identified by reacting the EtDH and EtDH:D46G with a reaction mixture containing 100 mM glycine-NaOH buffer solution (pH 9.5), 5 mM Mg^2+, 3 mM NAD^+/NADP^+ and 0.5 to 100 mM ethanol at room temperature. The kinetic parameters of FLS and variants thereof were identified by reacting FLS and variants thereof with a reaction mixture containing 100 mM phosphate buffer solution (pH 8.0), 1 mM Mg^+, 0.1 mM TPP and 0.5 to 20 mM acetaldehyde at room temperature. The kinetic parameters of BDH and BDH:S199A were identified by reacting BDH and BDH:S199A with a reaction mixture containing 50 mM Tris-HCl buffer solution (pH 7.5), 0.2 mM NADPH, 1 mM DTT; 0.5 to 100 mM acetoin or 0.5 to 10 mM butanone at room temperature. The Km and kcat values were identified using nonlinear regression fitting of the Michaelis-Menten equation and the fitting were repeated three times.
(§2) In order to compare the catalytic efficiencies via measurement of kinetic parameters of cascade enzymes and variants thereof in accordance with the present disclosure, the following experiment was performed. Specifically, the kinetic parameters of EtDH and EtDH:D46G were identified by reacting EtDH and EtDH:D46G with a reaction mixture containing 100 mM glycine-NaOH buffer solution (pH 9.5), 5 mM Mg^2+, 3 mM NAD^+/NADP^+ and 0.5 to 100 mM ethanol at room temperature. The kinetic parameters of FLS and variants thereof were identified by reacting FLS and variants thereof with a reaction mixture containing 100 mM phosphate buffer solution (pH 8.0), 1 mM Mg^+, 0.1 mM TPP and 0.5 to 20 mM acetaldehyde at room temperature. The kinetic parameters of BDH and BDH:S199A were identified by reacting BDH and BDH:S199A with a reaction mixture containing 50 mM Tris-HCl buffer solution (pH 7.5), 0.2 mM NADPH, 1 mM DTT; and 0.5 to 100 mM acetoin or 0.5 to 10 mM butanone at room temperature. Km and kcat values as substrate affinity were identified using nonlinear regression fitting of the Michaelis-Menten equation and the fitting were repeated three times. The test results of DDH and NOX were compared with previous results [(S. Kwak, et al., Bioresource Technol., 2013, 135, 432), and (M. Kopke, et al., Appl. Environ. Microbiol., 2014, 80, 3394)].

In data set [2] the target is T2, Clostridium autoethanogenum BDH (2,3-butanediol dehydrogenase), wild type, SEQ ID NO: 14 (Clostridium autoethanogenum, UniProt A0ABM5NRF0).
T2 sequence (A0ABM5NRF0 1-351): T1 sequence (A0ABM5NRF0 1-351 S199A) with A199S
Put plainly: kinetic parameters of BDH. The data set is classed as biochemical. The conditions noted are these: coenzyme NADH, pH 7.5, room temperature.

The subject of data set [3] is Lactobacillus brevis DDH (diol dehydratase), wild type, SEQ ID NO: 18. The conditions noted are these: substrate 2,3-butanediol, coenzyme B12; cited from earlier work.
Data set [4] relates to Cupriavidus necator EtDH (ethanol dehydrogenase), wild type, SEQ ID NO: 4. The note with it: substrate ethanol, pH 9.5, room temperature. The procedure: as §1, §2
In data set [5] the test system is Cupriavidus necator EtDH (ethanol dehydrogenase) variant EtDH:D46G, SEQ ID NO: 6. The conditions noted are these: pH 9.5, room temperature. The protocol:
as §1, §2

The test system of data set [6] is Lactobacillus rhamnosus NOX (NADH oxidase), SEQ ID NO: 2. The conditions noted are these: substrate O2, coenzyme NADH; cited from earlier work.
Substrate in data set [7]: CCC(C)=O
As to the kind of experiment: kinetic parameters of BDH. The note with it: other: substrate butanone, coenzyme NADPH (0.2 mM), pH 7.5, room temperature. Type of data set: biochemical, Clostridium autoethanogenum.

Substrate in data set [8]: CC(=O)C(C)O
Put plainly: kinetic parameters of BDH. The data set is classed as biochemical, Clostridium autoethanogenum. The conditions noted are these: other: substrate acetoin, coenzyme NADPH (0.2 mM), pH 7.5, room temperature.

Substrate in data set [9]: CCC(C)=O
Put plainly: kinetic parameters of BDH:S199A. The data set is classed as biochemical, Clostridium autoethanogenum. The note with it: other: substrate butanone, coenzyme NADPH (0.2 mM), pH 7.5, room temperature.

The mark [10] stands for this setting: substrate acetoin, coenzyme NADH.
Setting [11] is: substrate acetoin, coenzyme NADPH (0.2 mM).
[12] abbreviates: second line of EtDH:D46G, coenzyme printed NAD^+.
[13] abbreviates: substrate ethanol, coenzyme NAD^+ (3 mM).
Where [14] appears, read: substrate butanone, coenzyme NADH.

Changes are numbered by the printed parent chain. In names and notes the source's numbering stands. Read-outs that look alike come from different tables or passages of the source.

In general, kcat refers to the maximal rate divided by the concentration of active sites. One may read the kcat/Km as the second-order rate constant that governs catalysis at low substrate concentration. With `CC(=O)C(C)O` (stereo not shown) [Acetoin], the results for the kcat in data set [1] (setting [10]), in data set [1] (setting [11]) and in [2] (substrate acetoin) were 0 s⁻¹, 224.3 ± 9.72 s⁻¹ and 0 s⁻¹, respectively. Further, the results for the kcat/Km in data set [1] (setting [10]), in data set [1] (setting [11]) and in [2] (substrate acetoin) were 0 M⁻¹ s⁻¹, 19310 M⁻¹ s⁻¹ and 0 M⁻¹ s⁻¹, respectively.

For orientation: Km means the concentration of substrate that gives half-maximal velocity. Turning to `C[C@H](O)[C@@H](C)O` [2,3-butanediol], in data set [3], the Km is 10400 µM, the kcat is 35 s⁻¹ and the kcat/Km is 3400 M⁻¹ s⁻¹.

Take `CCO` [Ethanol]: the kcat is 0 s⁻¹ in data set [4] (coenzyme NADP^+ (3 mM)), 6.28 ± 0.11 s⁻¹ in data set [4] (coenzyme NAD^+ (3 mM)), 0.99 ± 0.03 s⁻¹ in data set [5] (setting [12]) and 5.85 ± 0.08 s⁻¹ in [5] (setting [13]). The kcat/Km in [4] (coenzyme NADP^+ (3 mM)) turned out to be 0 M⁻¹ s⁻¹; in [4] (coenzyme NAD^+ (3 mM)) it was 17090 M⁻¹ s⁻¹; in data set [5] (setting [12]), 1650 M⁻¹ s⁻¹; in data set [5] (setting [13]), 9970 M⁻¹ s⁻¹. Moreover, the Km in data set [4] (coenzyme NAD^+ (3 mM)) was determined as 370 ± 50 µM; in [5] (setting [12]), 600 ± 20 µM; in data set [5] (setting [13]), 570 ± 30 µM.

As to `CCC(C)=O` [Butanone], in data set [1] (setting [14]), the kcat amounted to 0 s⁻¹ and the kcat/Km was 0 M⁻¹ s⁻¹. The “catalytic efficiency compared to wild-type BDH” value in [1] (substrate butanone, coenzyme NADPH) is “increases catalytic efficiency”. Moreover, in data set [2] (substrate butanone), the kcat came to 0 s⁻¹ and the kcat/Km stood at 0 M⁻¹ s⁻¹.

Consider `O=O` [O2], for which, in data set [6], the kcat was 218.7 s⁻¹ and the kcat/Km was 3.77e+07 M⁻¹ s⁻¹.

B1: Clostridium autoethanogenum BDH (2,3-butanediol dehydrogenase), wild type, SEQ ID NO: 14 (Clostridium autoethanogenum DSM 10061) (protein)
chain: T1 sequence (A0ABM5NRF0 1-351 S199A) with A199S
For B1, in [7], the Km turned out to be 1940 ± 50 µM, the kcat was determined as 29.9 ± 1.02 s⁻¹ and the kcat/Km is 15400 M⁻¹ s⁻¹. In data set [8], the Km turned out to be 84560 ± 7960 µM.

B2: Clostridium autoethanogenum BDH (2,3-butanediol dehydrogenase) variant BDH:S199A, SEQ ID NO: 16 (Clostridium autoethanogenum DSM 10061; S199A) (protein)
chain: T1 sequence (A0ABM5NRF0 1-351 S199A)
As for B2, in [9], the Km was 1080 ± 90 µM, the kcat amounted to 40.8 ± 1.42 s⁻¹ and the kcat/Km turned out to be 37800 M⁻¹ s⁻¹.

The record behind these values is patent US11441142B2, “FLS variant having increased activity” (KONKUK UNIVERSITY INDUSTRIAL COOPERATION CORPORATION, priority 2017, dated 2022).
